# Source: patent publication US20140228287A1, “1-[(3-CYANO-PYRIDIN-2-YL)METHYL]-3-METHYL-7-(2-BUTYN-1-YL)-8-[3-(R)-AMINO-PIPERIDIN-1-YL]-AXANTHINE FOR THE TREATMENT OF A METABOLIC DISORDER OF A PREDOMINANTLY CARNIVOROUS NON-HUMAN ANIMAL” (BOEHRINGER INGELHEIM VETMEDICA GMBH, priority 2010, published 2014)
# Counter-ions that a name gives are not always drawn.
# How the values were obtained:
# plasma DPP IV = target: T1, plasma DPP IV (Homo sapiens, UniProt P27487); assay: Inhibition of plasma DPP IV activity in vitro, human plasma; type: biochemical
# T1 construct: from tissue; host or cells: human plasma
# Method: Studies were also conducted to assess the inhibitory effect of this compound on plasma DPP IV activity in several species.
# DPP 8 = DPP 8 (Homo sapiens, UniProt Q6V1X1); assay: In vitro selectivity, human proteases: DPP 8; type: biochemical
# Excerpt: In order to determine the in vitro selectivity of 1-[(3-cyano-pyridin-2-yl)methyl]-3-methyl-7-(2-butyn-1-yl)-8-[3-(R)-amino-piperidin-1-yl]-xanthine, the ability of this compound to inhibit a number of human proteases was investigated as described in Thomas et al. (2008), J. Pharmacol. Exp. Ther., vol. 325, p. 175-182, chapter In vitro DPP-4 Inhibition Assay, p. 176.
# [1] = tested on: insulin-resistant fa/fa rats; assay: Delayed OGTT in insulin-resistant fa/fa rats; type: in vivo, rat; details: 3 mg/kg 16 h before OGTT
# Method: Male Zucker Fatty (fa/fa) rats (Ico-Zucker-fa/fa (Orl)) were obtained from Iffa (France). Animals were fed ad libitum with a standard pelleted diet (Diet No. 3438, Provimi Kliba, Switzerland) and had free access to water. Animals were housed in groups with a 12 h/12 h light/dark cycle (lights out between 6 p.m. and 6 a.m.). The rats were used for the experiments between 7 and 12 weeks of age.
# fa/fa rats (n=6 per group) were treated like the mice in Example 3, delayed OGTT. 1-[(3-cyano-pyridin-2-yl)methyl]-3-methyl-7-(2-butyn-1-yl)-8-[3-(R)-amino-piperidin-1-yl]-xanthine was dosed at 3 mg/kg 16 hours before the OGTT.
# GLP-1 was measured using a commercially available GLP-1 (active) ELISA Kit (Catalog# EGLP-35K, Linco Research Inc., St. Charles/Mo., USA). Insulin was measured using a commercially available Rat Insulin ELISA Kit (Catalog#90060, Crystal Chem. Inc., Downers Grove/IL, USA).
# plasma DPP-4 [2] = target: T2, plasma DPP-4 (Felis catus, UniProt Q9N2I7); assay: Inhibition of DPP-4 in cat plasma (in vitro); type: biochemical
# T2 construct: from tissue; host or cells: cat plasma (3 cats), diluted 70-fold
# Method: (§1) Plasma obtained from 3 different cats and one Wistar rat as control were each incubated with a range of concentrations of 1-[(3-cyano-pyridin-2-yl)methyl]-3-methyl-7-(2-butyn-1-yl)-8-[3-(R)-amino-piperidin-1-yl]-xanthine monohydrochloride. Plasma DPP-4 activity was measured in the following way (which is also described in Eckhard et al. (2007), J. Med. Chem., Vol. 50, 6450-6453, Supporting Information).
# Rat and cat plasma was used for ex vivo measurement of DDP-4 activity. Blood was collected in EDTA tubes and subjected to centrifugation. The resultant supernatant was aliquoted and frozen. Plasma DPP-4 activity was assayed after dilution (140-fold for rat plasma; 70-fold for cat plasma) with assay buffer (100 mM Tris-HCl, 100 mM NaCl, pH 7.8; compound stock solutions in dimethylsulfoxide (DMSO), final DMSO concentration in the assay 1%) prior to use.
# (§2) The assay itself was initiated by mixing 50 μl of diluted plasma with 50 μl of diluted substrate (Ala-Pro-AFC) and performed in black flat-bottom 96-well plates. The plates were then incubated at room temperature for 1 h and fluorescence was measured at excitation/emission wavelengths of 405/535 nm. Data analysis was performed by calculating the fluorescence in the presence of the test compound compared to the fluorescence of the vehicle control after subtracting the background fluorescence.
# (§3) From a plot of concentration against activity (equivalent to fluorescence units) kinetic data could be collected, e.g. the half-maximal inhibitory concentration (IC50) of the tested compound in the different animals, which data are given in the following Table 2.
# plasma DPP-4 [3] = target: T3, plasma DPP-4 (Rattus norvegicus, UniProt P14740); assay: Inhibition of DPP-4 in rat plasma (in vitro); type: biochemical; details: wistar rat plasma
# T3 construct: from tissue
# Method: as §1
# Rat and cat plasma was used for ex vivo measurement of DDP-4 activity. Blood was collected in EDTA tubes and subjected to centrifugation. The resultant supernatant was aliquoted and frozen. […]
# as §2, §3
# [4] = Multiple dose study (14 days) in cats: adverse events; type: in vivo, cat; details: 1, 3, 9 mg/animal once daily oral for 14 days
# Method: The aim of this study was to investigate the PK/PD effects of 1-[(3-cyano-pyridin-2-yl)methyl]-3-methyl-7-(2-butyn-1-yl)-8-[3-(R)-amino-piperidin-1-yl]-xanthine in cats following repeated oral administration of 0, 1, 3 and 9 mg/animal over 14 days corresponding to a dose of 0, 0.25, 0.75 and 2.25 mg/kg body weight for a cat weighing 4 kg. (Dosages were based on the free base: 1 mg 1-[(3-cyano-pyridin-2-yl)methyl]-3-methyl-7-(2-butyn-1-yl)-8-[3-(R)-amino-piperidin-1-yl]-xanthine monohydrochloride corresponds to 0.923 mg 1-[(3-cyano-pyridin-2-yl)methyl]-3-methyl-7-(2-butyn-1-yl)-8-[3-(R)-amino-piperidin-1-yl]-xanthine free base).
# For this purpose, twelve clinically healthy male adult domestic short hair cats with a body weight range of 3.5-4.8 kg were used. The animals were randomly allocated to 4 groups, 3 animals per group. All animals were treated once daily orally for 14 days (i.e. on days 0-13). The test article was administered via capsules at doses of 1 (group II), 3 (group III) or 9 (group IV) mg of the monohydrochloride compound per animal; group I received placebo serving as controls. Blood samples for PK and PD (DPP IV activity) investigations were drawn at 0 h (i.e. prior to the 1st treatment), 0.5, 1, 2, 4, 8, 12 and 24 h after the 1st treatment as well as 24 h after the 3rd, 5th, 7th, 9th, 11th and 13th treatment and 0.5, 1, 2, 4, 8, 12 and 24 h after the 14th treatment.
# T2 sequence (Q9N2I7 38-765 limits assumed): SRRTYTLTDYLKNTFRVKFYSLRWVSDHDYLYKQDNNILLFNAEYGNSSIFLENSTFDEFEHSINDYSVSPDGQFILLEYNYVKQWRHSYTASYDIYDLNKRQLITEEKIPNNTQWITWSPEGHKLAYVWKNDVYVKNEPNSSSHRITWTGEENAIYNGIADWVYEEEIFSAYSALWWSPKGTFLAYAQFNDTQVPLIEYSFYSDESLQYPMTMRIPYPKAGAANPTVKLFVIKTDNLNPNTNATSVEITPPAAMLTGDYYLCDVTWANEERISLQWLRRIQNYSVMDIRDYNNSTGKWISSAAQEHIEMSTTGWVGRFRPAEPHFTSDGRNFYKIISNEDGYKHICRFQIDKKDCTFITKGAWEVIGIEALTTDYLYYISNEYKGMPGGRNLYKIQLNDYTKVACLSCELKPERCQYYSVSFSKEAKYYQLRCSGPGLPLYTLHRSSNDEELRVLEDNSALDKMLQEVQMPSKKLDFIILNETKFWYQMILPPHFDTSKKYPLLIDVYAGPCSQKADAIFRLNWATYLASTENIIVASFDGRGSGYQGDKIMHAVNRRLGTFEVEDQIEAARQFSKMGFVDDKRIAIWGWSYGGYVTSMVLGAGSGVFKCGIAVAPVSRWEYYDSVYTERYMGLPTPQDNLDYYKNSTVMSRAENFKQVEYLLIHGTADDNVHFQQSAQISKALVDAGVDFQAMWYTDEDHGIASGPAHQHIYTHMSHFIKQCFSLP
# T3 sequence (P14740 37-767 limits assumed): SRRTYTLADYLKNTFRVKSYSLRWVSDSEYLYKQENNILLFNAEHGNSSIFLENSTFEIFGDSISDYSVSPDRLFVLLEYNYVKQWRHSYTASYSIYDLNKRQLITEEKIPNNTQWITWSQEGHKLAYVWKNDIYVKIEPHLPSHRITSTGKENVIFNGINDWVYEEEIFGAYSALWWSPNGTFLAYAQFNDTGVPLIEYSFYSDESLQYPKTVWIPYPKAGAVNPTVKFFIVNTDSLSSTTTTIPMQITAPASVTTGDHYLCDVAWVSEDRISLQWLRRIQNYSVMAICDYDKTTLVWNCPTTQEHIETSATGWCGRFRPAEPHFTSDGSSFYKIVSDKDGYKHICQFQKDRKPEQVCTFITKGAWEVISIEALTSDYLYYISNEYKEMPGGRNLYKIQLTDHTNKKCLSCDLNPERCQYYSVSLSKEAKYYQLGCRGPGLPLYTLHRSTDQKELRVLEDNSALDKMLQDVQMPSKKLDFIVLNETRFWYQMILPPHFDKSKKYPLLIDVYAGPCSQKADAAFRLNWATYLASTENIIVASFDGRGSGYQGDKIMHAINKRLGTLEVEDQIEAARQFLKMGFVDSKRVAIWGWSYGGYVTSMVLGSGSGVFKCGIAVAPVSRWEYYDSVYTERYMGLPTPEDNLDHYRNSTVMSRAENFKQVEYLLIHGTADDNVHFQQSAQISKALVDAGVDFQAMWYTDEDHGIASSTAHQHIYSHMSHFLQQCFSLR
# T1 sequence (P27487 39-766 limits assumed): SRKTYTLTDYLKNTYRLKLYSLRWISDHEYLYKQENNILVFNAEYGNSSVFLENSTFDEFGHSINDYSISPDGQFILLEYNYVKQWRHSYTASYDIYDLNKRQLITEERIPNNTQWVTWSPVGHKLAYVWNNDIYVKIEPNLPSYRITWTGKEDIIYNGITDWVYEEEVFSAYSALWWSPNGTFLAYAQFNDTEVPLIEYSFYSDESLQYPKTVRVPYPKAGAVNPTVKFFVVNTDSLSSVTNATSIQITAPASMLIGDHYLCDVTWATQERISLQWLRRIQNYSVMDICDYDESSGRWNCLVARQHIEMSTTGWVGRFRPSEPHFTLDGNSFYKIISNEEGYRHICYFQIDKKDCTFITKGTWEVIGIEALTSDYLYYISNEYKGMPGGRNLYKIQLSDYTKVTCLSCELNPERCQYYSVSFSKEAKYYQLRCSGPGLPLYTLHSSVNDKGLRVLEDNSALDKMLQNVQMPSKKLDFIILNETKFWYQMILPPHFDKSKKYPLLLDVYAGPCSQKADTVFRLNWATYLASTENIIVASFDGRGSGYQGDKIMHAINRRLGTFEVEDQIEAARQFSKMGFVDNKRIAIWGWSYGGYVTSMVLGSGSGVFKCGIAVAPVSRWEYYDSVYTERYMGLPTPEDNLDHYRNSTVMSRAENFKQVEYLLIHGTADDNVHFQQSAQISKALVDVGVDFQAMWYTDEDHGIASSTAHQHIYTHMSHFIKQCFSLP
# DPP 8, sequence (Q6V1X1 whole entry): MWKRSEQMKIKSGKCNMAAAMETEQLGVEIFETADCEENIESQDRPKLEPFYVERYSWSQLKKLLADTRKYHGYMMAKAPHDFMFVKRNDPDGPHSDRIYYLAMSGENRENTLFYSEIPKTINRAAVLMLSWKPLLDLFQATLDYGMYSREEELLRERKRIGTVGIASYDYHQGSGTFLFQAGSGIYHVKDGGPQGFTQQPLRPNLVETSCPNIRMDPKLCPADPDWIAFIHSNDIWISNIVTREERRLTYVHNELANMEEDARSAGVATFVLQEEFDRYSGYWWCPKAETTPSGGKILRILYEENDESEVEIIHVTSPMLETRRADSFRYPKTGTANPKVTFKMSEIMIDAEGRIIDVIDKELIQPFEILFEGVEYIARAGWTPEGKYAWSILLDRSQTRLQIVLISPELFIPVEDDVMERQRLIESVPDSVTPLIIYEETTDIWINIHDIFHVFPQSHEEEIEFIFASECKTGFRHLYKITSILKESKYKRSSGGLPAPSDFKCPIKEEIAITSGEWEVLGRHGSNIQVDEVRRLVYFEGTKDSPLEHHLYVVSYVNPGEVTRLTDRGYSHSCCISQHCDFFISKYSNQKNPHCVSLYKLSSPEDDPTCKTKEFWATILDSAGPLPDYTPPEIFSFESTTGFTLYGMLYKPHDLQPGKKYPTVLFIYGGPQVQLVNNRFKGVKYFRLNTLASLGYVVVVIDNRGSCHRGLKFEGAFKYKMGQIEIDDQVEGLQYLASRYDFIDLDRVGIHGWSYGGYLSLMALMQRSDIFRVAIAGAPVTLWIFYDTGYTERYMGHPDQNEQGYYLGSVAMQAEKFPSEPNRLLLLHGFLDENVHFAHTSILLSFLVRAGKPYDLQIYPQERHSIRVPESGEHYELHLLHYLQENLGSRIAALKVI
structure (smiles),measurement,setting,value
CC#CCn1c(N2CCC[C@@H](N)C2)nc2c1c(=O)n(Cc1ncccc1C#N)c(=O)n2C [1-[(3-cyano-pyridin-2-yl)methyl]-3-methyl-7-(2-butyn-1-yl)-8-[3-(R)-amino-piperidin-1-yl]-xanthine monohydrochloride],IC50,plasma DPP IV,~0.6 nM
same,IC50,DPP 8,95000 nM
same,GLP-1 levels vs. control group,[1],elevated vs. the control group at all time points
same,"Glucose AUC 0-90 min, Change versus control, Mean Diff. %",[1],−34.4%
same,"Glucose AUC 0-90 min, Mean",[1],177.00 mM·min
same,"Glucose AUC 0-90 min, Median",[1],165.00 mM·min
same,peak plasma insulin levels compared to vehicle treatment,[1],further elevations in peak plasma insulin levels
same,reduction of area under the glucose excursion curve,[1],34.4%
same,rise of GLP-1 levels vs. baseline after the glucose stimulus,[1],93%
same,"Glucose, Change versus baseline, Mean Diff. %",[1]; 30 min,71.7%
same,"Glucose, Change versus control, Mean Diff. %",[1]; 30 min,−29.0%
same,"Glucose, Mean",[1]; 30 min,7.90 mM
same,"Glucose, Median",[1]; 30 min,8.00 mM
same,"Glucose, Change versus baseline, Mean Diff. %",[1]; 60 min,39.1%
same,"Glucose, Change versus control, Mean Diff. %",[1]; 60 min,−23.0%
same,"Glucose, Mean",[1]; 60 min,6.40 mM
same,"Glucose, Median",[1]; 60 min,6.30 mM
same,"Glucose, Change versus baseline, Mean Diff. %",[1]; 90 min,34.8%
same,"Glucose, Change versus control, Mean Diff. %",[1]; 90 min,−2.1%
same,"Glucose, Mean",[1]; 90 min,6.20 mM
same,"Glucose, Median",[1]; 90 min,6.30 mM
same,"Glucose, Change versus baseline, Mean Diff. %",[1]; 120 min,31.3%
same,"Glucose, Change versus control, Mean Diff. %",[1]; 120 min,5.7%
same,"Glucose, Mean",[1]; 120 min,6.04 mM
same,"Glucose, Median",[1]; 120 min,5.70 mM
same,"Glucose, Change versus baseline, Mean Diff. %",[1]; 180 min,29.6%
same,"Glucose, Change versus control, Mean Diff. %",[1]; 180 min,13.2%
same,"Glucose, Mean",[1]; 180 min,5.96 mM
same,"Glucose, Median",[1]; 180 min,6.10 mM
same,"Glucose, Change versus control, Mean Diff. %",[1]; Pre-load,−15.6%
same,"Glucose, Mean",[1]; Pre-load,4.60 mM
same,"Glucose, Median",[1]; Pre-load,4.40 mM
same,IC50,plasma DPP-4 [2]; cat 1 plasma,1.94 nM
same,hillslope,plasma DPP-4 [2]; cat 1 plasma,−0.7518
same,IC50,plasma DPP-4 [2]; cat 2 plasma,1.45 nM
same,hillslope,plasma DPP-4 [2]; cat 2 plasma,−0.7102
same,IC50,plasma DPP-4 [2]; cat 3 plasma,1.84 nM
same,hillslope,plasma DPP-4 [2]; cat 3 plasma,−0.7615
same,IC50,plasma DPP-4 [3],1.95 nM
same,hillslope,plasma DPP-4 [3],−0.8462
same,adverse events,[4],No adverse events specifically attributable to the test article were noted
